The values that follow come from ChEMBL document CHEMBL3431459, “Roche carnitine palmitoyltransferase modulator screening data (supplementary data associated with the publication CHEMBL2216752)”.

As a reminder, the pIC50 is −log10 of the IC50, conventionally taken in molar units. The low end stands for a high IC50, the high end for a low IC50. For orientation: logD means the decadic logarithm of the distribution of all forms, ionised or not, between an organic phase and buffer at a given pH.

Data set [1] has as its target T1, Carnitine O-palmitoyltransferase 1, muscle isoform (Homo sapiens, UniProt Q92523).
T1 sequence (Q92523 whole entry): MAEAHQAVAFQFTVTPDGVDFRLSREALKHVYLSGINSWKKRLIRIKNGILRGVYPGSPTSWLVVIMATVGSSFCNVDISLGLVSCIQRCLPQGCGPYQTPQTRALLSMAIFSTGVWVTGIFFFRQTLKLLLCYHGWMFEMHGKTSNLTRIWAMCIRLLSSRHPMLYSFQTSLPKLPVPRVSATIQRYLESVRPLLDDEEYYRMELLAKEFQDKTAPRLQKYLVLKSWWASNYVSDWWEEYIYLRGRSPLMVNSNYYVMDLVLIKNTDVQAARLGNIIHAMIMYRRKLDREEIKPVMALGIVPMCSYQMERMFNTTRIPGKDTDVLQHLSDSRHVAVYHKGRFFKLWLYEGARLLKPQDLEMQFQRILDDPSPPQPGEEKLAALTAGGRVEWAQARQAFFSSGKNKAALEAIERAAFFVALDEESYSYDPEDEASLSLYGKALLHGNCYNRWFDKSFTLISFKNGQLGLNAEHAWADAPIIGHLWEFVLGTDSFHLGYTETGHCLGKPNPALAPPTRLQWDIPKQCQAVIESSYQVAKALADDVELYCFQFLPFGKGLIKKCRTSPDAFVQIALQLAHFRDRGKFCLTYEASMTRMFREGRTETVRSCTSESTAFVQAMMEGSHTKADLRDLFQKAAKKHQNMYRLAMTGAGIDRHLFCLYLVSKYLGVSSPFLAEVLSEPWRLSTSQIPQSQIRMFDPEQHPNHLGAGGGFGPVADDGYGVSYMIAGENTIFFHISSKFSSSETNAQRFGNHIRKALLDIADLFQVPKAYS
The experiment in a line: SUPPLEMENTARY: Inhibition of Carnitine palmitoyltransferase 1, muscle isoform. Set-up: species or system Muscle tissue.

Data set [2] deals with T2, Carnitine O-palmitoyltransferase 2, mitochondrial (Homo sapiens, UniProt P23786).
T2 sequence (P23786 whole entry): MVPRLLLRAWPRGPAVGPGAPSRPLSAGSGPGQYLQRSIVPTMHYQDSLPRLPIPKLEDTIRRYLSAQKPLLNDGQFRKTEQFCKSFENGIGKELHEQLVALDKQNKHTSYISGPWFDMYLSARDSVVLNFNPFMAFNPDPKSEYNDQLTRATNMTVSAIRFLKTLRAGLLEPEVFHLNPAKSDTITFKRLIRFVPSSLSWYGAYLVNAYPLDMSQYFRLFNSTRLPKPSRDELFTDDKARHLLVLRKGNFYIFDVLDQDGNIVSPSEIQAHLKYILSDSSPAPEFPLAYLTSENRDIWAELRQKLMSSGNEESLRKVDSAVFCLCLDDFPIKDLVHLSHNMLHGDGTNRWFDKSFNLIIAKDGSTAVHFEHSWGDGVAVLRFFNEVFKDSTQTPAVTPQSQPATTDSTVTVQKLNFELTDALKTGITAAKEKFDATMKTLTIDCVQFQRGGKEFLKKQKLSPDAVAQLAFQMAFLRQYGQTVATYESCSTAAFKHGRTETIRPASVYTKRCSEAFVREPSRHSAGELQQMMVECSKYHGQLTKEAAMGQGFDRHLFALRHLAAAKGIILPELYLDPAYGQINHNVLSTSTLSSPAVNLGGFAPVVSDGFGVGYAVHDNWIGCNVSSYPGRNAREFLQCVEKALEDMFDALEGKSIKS
Put plainly: (§1) SUPPLEMENTARY: Inhibition of Carnitine palmitoyltransferase 2.

The target of data set [3] is T3, Carnitine O-palmitoyltransferase 2, mitochondrial (Rattus norvegicus, UniProt P18886).
T3 sequence (P18886 whole entry): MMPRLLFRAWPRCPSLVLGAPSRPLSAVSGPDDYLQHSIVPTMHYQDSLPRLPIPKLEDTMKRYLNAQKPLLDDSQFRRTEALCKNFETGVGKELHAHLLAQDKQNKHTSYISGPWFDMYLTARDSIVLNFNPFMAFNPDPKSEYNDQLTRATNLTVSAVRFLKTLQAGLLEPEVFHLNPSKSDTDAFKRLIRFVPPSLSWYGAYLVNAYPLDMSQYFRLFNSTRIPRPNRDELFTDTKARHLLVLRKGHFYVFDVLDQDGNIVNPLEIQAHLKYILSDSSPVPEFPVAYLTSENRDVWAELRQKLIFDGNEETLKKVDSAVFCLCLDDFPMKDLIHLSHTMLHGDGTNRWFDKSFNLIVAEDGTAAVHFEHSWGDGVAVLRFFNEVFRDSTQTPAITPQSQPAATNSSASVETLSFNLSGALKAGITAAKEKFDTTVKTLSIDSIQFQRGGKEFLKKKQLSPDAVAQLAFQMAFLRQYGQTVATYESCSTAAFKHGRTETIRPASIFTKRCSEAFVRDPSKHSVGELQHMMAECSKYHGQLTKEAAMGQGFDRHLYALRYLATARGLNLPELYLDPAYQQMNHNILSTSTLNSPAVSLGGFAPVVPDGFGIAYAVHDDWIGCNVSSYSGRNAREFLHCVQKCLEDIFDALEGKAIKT
The description is as §1.

Data set [4] addresses T4, Carnitine O-palmitoyltransferase 1, liver isoform (Homo sapiens, UniProt P50416).
T4 sequence (P50416 whole entry): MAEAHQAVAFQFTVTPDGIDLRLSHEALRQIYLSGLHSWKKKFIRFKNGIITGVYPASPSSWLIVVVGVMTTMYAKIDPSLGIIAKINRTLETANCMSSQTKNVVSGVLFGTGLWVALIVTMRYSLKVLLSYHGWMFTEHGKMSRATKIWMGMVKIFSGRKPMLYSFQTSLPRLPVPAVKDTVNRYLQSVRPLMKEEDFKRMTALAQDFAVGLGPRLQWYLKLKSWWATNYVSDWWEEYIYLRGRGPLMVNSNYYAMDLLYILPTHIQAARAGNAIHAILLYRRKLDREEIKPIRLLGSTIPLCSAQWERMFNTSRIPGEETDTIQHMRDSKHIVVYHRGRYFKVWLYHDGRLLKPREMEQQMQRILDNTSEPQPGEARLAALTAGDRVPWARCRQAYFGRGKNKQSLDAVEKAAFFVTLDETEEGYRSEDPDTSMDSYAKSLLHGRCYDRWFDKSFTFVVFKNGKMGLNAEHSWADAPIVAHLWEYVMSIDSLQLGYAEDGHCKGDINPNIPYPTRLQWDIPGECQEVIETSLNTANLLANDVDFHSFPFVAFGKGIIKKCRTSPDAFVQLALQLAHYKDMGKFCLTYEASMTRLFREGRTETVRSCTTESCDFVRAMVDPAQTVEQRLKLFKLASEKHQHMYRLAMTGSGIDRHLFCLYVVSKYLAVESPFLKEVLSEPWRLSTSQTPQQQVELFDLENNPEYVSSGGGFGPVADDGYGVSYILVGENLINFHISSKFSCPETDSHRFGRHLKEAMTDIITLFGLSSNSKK
Put plainly: (§2) SUPPLEMENTARY: Inhibition of Carnitine palmitoyltransferase 1, liver isoform.

Data set [5] addresses T5, Carnitine O-palmitoyltransferase 1, liver isoform (Rattus norvegicus, UniProt P32198).
T5 sequence (P32198 whole entry): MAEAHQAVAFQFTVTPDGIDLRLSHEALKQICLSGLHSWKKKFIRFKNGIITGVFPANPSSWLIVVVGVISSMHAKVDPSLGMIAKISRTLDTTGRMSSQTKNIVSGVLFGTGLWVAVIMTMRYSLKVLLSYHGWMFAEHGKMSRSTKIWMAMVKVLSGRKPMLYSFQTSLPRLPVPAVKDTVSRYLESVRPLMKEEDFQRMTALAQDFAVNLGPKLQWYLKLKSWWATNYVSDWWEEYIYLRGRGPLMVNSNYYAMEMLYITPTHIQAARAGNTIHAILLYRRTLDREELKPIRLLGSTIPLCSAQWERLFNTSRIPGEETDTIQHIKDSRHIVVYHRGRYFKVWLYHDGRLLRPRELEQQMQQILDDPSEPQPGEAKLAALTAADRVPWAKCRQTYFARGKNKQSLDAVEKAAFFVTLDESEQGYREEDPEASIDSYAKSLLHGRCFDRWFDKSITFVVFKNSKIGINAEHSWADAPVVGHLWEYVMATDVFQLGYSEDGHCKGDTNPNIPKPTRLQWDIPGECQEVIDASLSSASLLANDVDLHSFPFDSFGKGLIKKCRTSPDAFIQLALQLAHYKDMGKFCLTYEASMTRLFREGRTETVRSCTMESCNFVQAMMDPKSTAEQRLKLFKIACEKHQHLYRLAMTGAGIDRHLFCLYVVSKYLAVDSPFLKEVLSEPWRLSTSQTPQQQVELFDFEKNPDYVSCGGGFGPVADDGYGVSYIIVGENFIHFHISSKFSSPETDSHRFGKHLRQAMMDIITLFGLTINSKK
The description is as §2.

Data set [6] in a line: SUPPLEMENTARY: Lyophilisation Solubility Assay (LYSA). It is filed as physicochemical. The following applies: read-out: Kinetic_solubility.
A short description of data set [7]: SUPPLEMENTARY: Lipophilicity (log D) Determination by high-throughput shake-flask. Format: physicochemical. As to conditions: octanol/water.
A short description of data set [8]: SUPPLEMENTARY: PAMPA permeability assay. It is filed as physicochemical. As to conditions: read-out: Permeability. (In PAMPA a lipid-coated filter parts donor from acceptor wells.)

pIC50: −log10 of the molar value. In brackets after ≈: the same amount, converted by molar mass.

In the case of `O=C(Nc1ccc(-c2nnn[nH]2)cc1)c1cccc(NS(=O)(=O)c2cccc(Cl)c2)c1`, the pIC50 in data set [1] was 6.65; in data set [2], 4.26; in data set [3] it was less than 4.00; in data set [4], 7.70; in data set [5] it was 7.66. In addition, the solubility kinetic in data set [6] was 16 µg/mL (≈ 35.2 µM). This compound also registered a logD in data set [7] of 0.5. Also, in data set [8], the Papp was 0.0275 ×10⁻⁶ cm/s.

Consider `NC(=O)c1ccc(-c2noc([C@H]3CCCCN3C(=O)COc3ccccc3)n2)cc1`, for which the pIC50 in data set [1] was less than 4.00; in data set [2] it was 4.40; in data set [3], 4.42; in data set [4], 7.47; in data set [5], 6.59. For the same compound, in data set [6], the solubility kinetic worked out at 52 µg/mL (≈ 128 µM). Besides, in data set [7], the logD was 2.66. Also, in data set [8], the Papp worked out at 5.08 ×10⁻⁶ cm/s.

As to `NS(=O)(=O)c1cccc(-c2noc([C@H]3CCCCN3C(=O)COc3ccccc3)n2)c1`, the pIC50 in data set [1] is less than 4.00; in data set [2], 4.21; in data set [3], 4.24; in data set [4], 7.06; in data set [5], 6.69. Also, the solubility kinetic in data set [6] was determined as 33 µg/mL (≈ 74.6 µM). Besides, the logD in data set [7] was determined as 2.17. Also, the Papp in data set [8] was 1.63 ×10⁻⁶ cm/s.

As to `O=C(O)c1cccc(-c2noc([C@H]3CCCCN3C(=O)COc3ccccc3)n2)c1`, the negative logarithm of the IC50 (pIC50) in data set [1] was 4.03; in data set [2], less than 4.00; in data set [3] it was less than 4.00; in data set [4], 7.03; in data set [5] it was 5.83. The solubility kinetic in data set [6] was more than 461 µg/mL. The logD in data set [7] was 0.99. Moreover, the Papp in data set [8] is 1.92 ×10⁻⁶ cm/s.

Regarding `O=C(O)c1ccc(NC(=O)c2cccc(S(=O)(=O)N3CCCc4ccc(C(F)(F)F)cc43)c2)cc1`, the pIC50 was 5.31 in data set [1]; 5.24 in data set [2]; 5.53 in data set [3]; 7.47 in data set [4]; 6.92 in data set [5]. Moreover, in data set [6], the solubility kinetic was determined as 44 µg/mL (≈ 87.2 µM). This compound displayed a logD in data set [7] of 1.93. Besides, in data set [8], the Papp amounted to 3.63 ×10⁻⁶ cm/s.

For `CCN(CC)C(=O)c1ccc(-c2noc([C@H]3CCCCN3C(=O)COc3ccccc3)n2)cc1`, the pIC50 in data set [1] was less than 4.00; in data set [2], 4.71; in data set [3], 4.88; in data set [4], 7.40; in data set [5], 5.98. In data set [6], the solubility kinetic was 31 µg/mL (≈ 67 µM). In addition, in data set [7], the logD was found to be 3.3. Further, in data set [8], the Papp turned out to be 1.49 ×10⁻⁶ cm/s.

With `Cc1cc(C(=O)Nc2ccc(C(=O)O)cc2)cc(S(=O)(=O)Nc2cccc(C(F)(F)F)c2)c1C`, the pIC50 in data set [1] was 4.52; in data set [2], 5.74; in data set [3], 5.87; in data set [4], 6.91; in data set [5], 6.25. Further, the solubility kinetic in data set [6] worked out at 310 µg/mL (≈ 629 µM). The compound further came in with a logD in data set [7] of 1.62. The Papp in data set [8] came to 0.841 ×10⁻⁶ cm/s.

`O=C(O)c1ccc(NC(=O)c2ccc(Cl)c(NS(=O)(=O)c3cc(Cl)cc(Cl)c3)c2)cc1`: the pIC50 is 4.27 in data set [1]; 4.59 in data set [2]; less than 4.00 in data set [3]; 7.06 in data set [4]; 6.86 in data set [5]. The solubility kinetic in data set [6] is 13 µg/mL (≈ 26 µM). The logD in data set [7] stood at 0.49. Moreover, the Papp in data set [8] was 2.25 ×10⁻⁶ cm/s.

For `COc1ccc(Cl)cc1S(=O)(=O)Nc1cc(C(=O)Nc2ccc(C(=O)O)cc2)cc(OC)c1OC`, the pIC50 in data set [1] was less than 4.00; in data set [2], 5.52; in data set [3], 5.97; in data set [4], 7.36; in data set [5], 6.60. Further, the solubility kinetic in data set [6] was more than 598 µg/mL. Besides, the logD in data set [7] was 0.56. The Papp in data set [8] was found to be 1.57 ×10⁻⁶ cm/s.

For `O=C(COc1ccccc1)N1CCCC[C@@H]1c1nc(-c2ccc(Cl)cc2)no1`, the pIC50 in data set [1] is less than 4.00; in data set [2], less than 4.00; in data set [3], less than 4.00; in data set [4] it was 6.72; in data set [5], 6.64. For the same compound, in data set [6], the solubility kinetic was determined as 11 µg/mL (≈ 27.6 µM). Further, in data set [7], the logD is more than 3. In data set [8], the Papp turned out to be 0.962 ×10⁻⁶ cm/s.
